Molecular target: T1, PefR (GAS PefR) (Streptococcus pyogenes, UniProt Q9A1K6)
T1 construct: gene SPy_0228; full ORF, N-terminal 6xHis tag (pRham N-His, pAJS11), tag cleavage not mentioned; expressed in E. coli (E. cloni 10G); as purified carries some heme
Assay: UV-visible absorbance titration at […] nm, linear fit
Format: binding

T1 sequence (Q9A1K6 entry or part of it): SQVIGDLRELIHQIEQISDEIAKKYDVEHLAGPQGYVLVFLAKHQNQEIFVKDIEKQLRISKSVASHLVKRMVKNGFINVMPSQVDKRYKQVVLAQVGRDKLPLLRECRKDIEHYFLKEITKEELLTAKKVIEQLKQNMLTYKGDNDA

SMILES: C=CC1=C(C)c2cc3[nH]c(cc4nc(cc5[nH]c(cc1n2)c(C)c5CCC(=O)O)C(CCC(=O)O)=C4C)c(C)c3C=C [PPIX]
- Kd: 9 µM

Reference: article PMC4220732 (Frontiers in Cellular and Infection Microbiology, 2014)
